The target in one assay is T1, CDK7 (Homo sapiens, UniProt P50613).
T1 construct: purchased Carna Biosciences, Inc. 04-108
Put plainly: CDK7 enzyme inhibition test. The format is biochemical. The note with it: [γ-33P]ATP, MBP substrate, 60 min preincubation at 25°C; Ki=IC50/(1+S/Km); read-out: Ki value of CDK7 inhibitory activity. The gist of the method:
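Commercial human CDK7 with myelin basic protein substrate in HEPES pH 7.4 buffer with DTT, Triton X-100, MgCl2; compound preincubated 60 min at 25° C, then reaction run 20 min at 30° C after adding [γ-^33P]ATP (500 μM solution). TCA-precipitated ^33P-MBP counted by scintillation; IC50 converted to Ki via Ki=IC50/(1+S/Km).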

In a further assay the target is T2, PLK1 (Homo sapiens, UniProt P53350).
T2 construct: purchased Carna Biosciences, Inc. 05-157
Put plainly: PLK1 enzyme (polo-like kinase) inhibition test. The format is biochemical. To be noted: [γ-33P]ATP, casein substrate; Ki=IC50/(1+S/Km); read-out: Ki value of PLK1 inhibitory activity. On the procedure:
The preparation of a buffer solution was performed by mixing a 3-morpholinopropanesulfonic acid buffer solution (MOPS buffer solution) (pH 7.0), dithiothreitol (DTT), and magnesium acetate (Mg(CH3COO)2). A 1 mM [γ-^33P]ATP solution was used by diluting a 10 mM ATP solution and a commercially available [γ-^33P]ATP solution (manufactured by Perkin Elmer, Inc., Code No. NEG-302H) with the buffer solution. A PLK1 solution was used by diluting commercially available PLK1 (manufactured by Carna Biosciences, Inc., Catalog No. 05-157) with the buffer solution. A substrate solution was used by diluting casein with the buffer solution. As for the preparation of a reaction solution, the buffer solution, the 500 μM [γ-^33P]ATP solution, the PLK1 solution, and the substrate solution were mixed at 4° C. to obtain a reaction solution.
(§1) PLK1 enzyme reaction was performed by adding 5 μL of a test compound solution prepared with 10% DMSO/90% injectable distilled water, and 45 μL of the reaction solution in a 1.5 mL microtube at 4° C. and reacting in the microtube at 30° C. for 20 minutes in a water bath incubator. After the reaction, a 10% aqueous trichloroacetic acid (TCA) solution was added to each microtube while cooled to 4° C., and mixed in a vortex mixer to terminate the reaction. The resultant was left standing at 4° C. for 10 minutes and then centrifuged, and the supernatant was discarded. Next, a 2% aqueous trichloroacetic acid (TCA) solution was added thereto, mixed in a vortex mixer, and then centrifuged, and the supernatant was discarded. This washing operation was performed twice. After the washing, precipitates were dissolved in a 1 N aqueous sodium hydroxide (NaOH) solution, and the energy quantity (radioactivity) of the reaction product was measured with a liquid scintillation counter.
The calculation of the inhibitory activity of the test compound against PLK1 was performed as a test compound concentration inhibiting 50% of the amount of ^33P bound to casein (IC50 value) by using EXSUS (version 8.1.0, manufactured by CAC Exicare Corp.).
(§2) The calculation of a Ki value was performed according to the following calculation expression wherein S represents the concentration of ATP contained in the reaction solution, and Km represents a Michaelis-Menten constant: Ki=IC50/(1+S/Km)

Assay [1] relates to human large intestine cancer cell line (HCT-116). Put plainly: Human large intestine cancer (HCT-116) cell growth inhibition test. The format is cell-based. To be noted: HCT-116, 72 h, culture for 3 days, sulforhodamine B, read-out: GI50 value, HCT-116 cell growth inhibition. The gist of the method: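 HCT-116 cells were seeded at 0.5 to 2.0×10^3 cells/well in McCoy's 5A with 10% FBS and dosed with compound at 0.1% final DMSO after overnight culture. Growth was measured by sulforhodamine B absorbance after 3 days. GI50 was calculated from the inhibition rate at each concentration.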

Another assay concerns the target T3, CDK2 (Homo sapiens, UniProt P24941).
T3 construct: purchased Invitrogen Corp. PV3267
In words: CDK2 enzyme inhibition test. The format is biochemical. To be noted: [γ-33P]ATP, MBP substrate; Ki=IC50/(1+S/Km); read-out: Ki value of CDK2 inhibitory activity. On the procedure:
The preparation of a buffer solution was performed by mixing a N-2-hydroxyethylpiperazine-N′-2-ethanesulfonic acid buffer solution (HEPES buffer solution) (pH 7.4), dithiothreitol (DTT), Triton X-100, and magnesium chloride (MgCl2). A 500 μM [γ-^33P]ATP solution was used by diluting a 10 mM ATP solution and a commercially available [γ-^33P]ATP solution (manufactured by Perkin Elmer, Inc., Code No. NEG-302H) with the buffer solution. A CDK2 solution was used by diluting commercially available CDK2 (manufactured by Invitrogen Corp., Catalog No. PV3267) with the buffer solution. A substrate solution was used by diluting myelin basic protein (MBP) with the buffer solution. As for the preparation of a reaction solution, the buffer solution, the 500 μM [γ-^33P]ATP solution, the CDK2 solution, and the substrate solution were mixed at 4° C. to obtain a reaction solution.
as §1, with “CDK2 enzyme reaction” for “PLK1 enzyme reaction”, “mixed in vortex mixer,” for “mixed in a vortex mixer,”
The calculation of the inhibitory activity of the test compound against CDK2 was performed as a test compound concentration inhibiting 50% of the amount of ^33P bound to MBP (IC50 value) by using EXSUS (version 8.1.0, manufactured by CAC Exicare Corp.).
as §2

Some results are limits rather than exact numbers.

T2 sequence (P53350 whole entry): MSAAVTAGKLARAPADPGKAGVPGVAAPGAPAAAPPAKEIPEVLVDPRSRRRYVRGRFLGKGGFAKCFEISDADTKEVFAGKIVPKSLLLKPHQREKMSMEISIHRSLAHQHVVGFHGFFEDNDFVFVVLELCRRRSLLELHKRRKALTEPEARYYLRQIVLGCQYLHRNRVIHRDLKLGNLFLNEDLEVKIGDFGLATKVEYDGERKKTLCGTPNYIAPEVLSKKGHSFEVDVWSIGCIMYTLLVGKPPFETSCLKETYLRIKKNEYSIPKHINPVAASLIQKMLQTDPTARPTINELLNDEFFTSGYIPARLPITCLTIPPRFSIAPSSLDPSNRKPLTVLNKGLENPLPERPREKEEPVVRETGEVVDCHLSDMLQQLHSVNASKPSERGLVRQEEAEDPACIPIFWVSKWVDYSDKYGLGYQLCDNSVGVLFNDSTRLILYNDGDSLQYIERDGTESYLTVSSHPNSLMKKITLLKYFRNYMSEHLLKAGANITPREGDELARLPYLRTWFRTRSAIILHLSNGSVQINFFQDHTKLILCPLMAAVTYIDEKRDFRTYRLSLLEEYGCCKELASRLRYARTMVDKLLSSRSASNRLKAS
T1 sequence (P50613 whole entry): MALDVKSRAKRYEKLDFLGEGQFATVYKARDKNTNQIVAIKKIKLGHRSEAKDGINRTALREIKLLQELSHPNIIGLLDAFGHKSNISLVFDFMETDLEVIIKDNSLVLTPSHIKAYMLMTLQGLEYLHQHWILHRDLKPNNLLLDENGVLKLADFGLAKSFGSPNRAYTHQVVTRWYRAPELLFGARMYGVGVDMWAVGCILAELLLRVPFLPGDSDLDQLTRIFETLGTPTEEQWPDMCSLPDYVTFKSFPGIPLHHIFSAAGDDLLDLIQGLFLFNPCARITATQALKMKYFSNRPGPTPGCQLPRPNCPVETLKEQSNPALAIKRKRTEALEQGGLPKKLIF
T1 sequence (P51946 whole entry partner): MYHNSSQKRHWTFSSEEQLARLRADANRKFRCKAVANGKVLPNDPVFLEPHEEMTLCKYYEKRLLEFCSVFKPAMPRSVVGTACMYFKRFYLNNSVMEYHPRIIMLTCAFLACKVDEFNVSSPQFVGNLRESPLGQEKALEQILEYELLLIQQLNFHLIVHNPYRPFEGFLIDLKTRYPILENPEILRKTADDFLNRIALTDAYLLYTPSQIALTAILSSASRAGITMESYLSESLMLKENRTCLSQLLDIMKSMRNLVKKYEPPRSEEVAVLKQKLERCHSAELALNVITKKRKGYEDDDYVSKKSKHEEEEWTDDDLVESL
T1 sequence (P51948 whole entry partner): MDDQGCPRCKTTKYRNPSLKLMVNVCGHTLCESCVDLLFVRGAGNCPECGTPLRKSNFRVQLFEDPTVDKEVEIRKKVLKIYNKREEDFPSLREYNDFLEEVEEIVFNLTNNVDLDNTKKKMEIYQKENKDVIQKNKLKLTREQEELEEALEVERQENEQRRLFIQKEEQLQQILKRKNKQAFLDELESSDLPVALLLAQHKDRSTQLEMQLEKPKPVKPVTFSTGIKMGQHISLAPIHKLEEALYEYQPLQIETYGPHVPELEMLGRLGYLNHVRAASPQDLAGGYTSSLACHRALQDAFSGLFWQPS

In general, Ki refers to the dissociation constant of the complex between target and ligand, obtained from inhibition or displacement. Broadly, the GI50 is the concentration that inhibits growth by half. With `Cc1cc2ccc(F)c(NC(=O)N3Cc4c(NC(=O)C5([Si](C)(C)C)CCC5)n[nH]c4C3(C)C)c2o1` [IV-1059, N-(6-Fluoro-2-methylbenzofuran-7-yl)-6,6-dimethyl-3-[1-(trimethylsilyl)cyclobutanecarboxamido]-4,6-dihydropyrrolo[3,4-c]pyrazole-5(1H)-carboxamide], the results for the Ki on CDK7, on PLK1 and on CDK2 were at most 50 nM, at least 5000 nM and at least 1000 nM, respectively. The GI50 in assay [1] was at most 100 nM.

Turning to `CC1(C)c2[nH]nc(NC(=O)C3([Si](C)(C)C)CCC3)c2CN1C(=O)Nc1c(Cl)cccc1C(F)(F)F` [IV-239, N-[2-Chloro-6-(trifluoromethyl)phenyl]-6,6-dimethyl-3-[1-(trimethylsilyl)cyclobutanecarboxamido]-4,6-dihydropyrrolo[3,4-c]pyrazole-5(1H)-carboxamide], the results for the Ki at CDK7, at PLK1 and on CDK2 were at most 50 nM, at least 5000 nM and at least 1000 nM, respectively. In addition, in assay [1], the GI50 is at most 100 nM.

Consider `Cc1ccc(F)c(NC(=O)N2Cc3c(NC(=O)C4([Si](C)(C)C)CCC4)n[nH]c3C2(C)C)c1F` [IV-609, N-(2,6-Difluoro-3-methylphenyl)-6,6-dimethyl-3-[1-(trimethylsilyl)cyclobutanecarboxamido]-4,6-dihydropyrrolo[3,4-c]pyrazole-5(1H)-carboxamide], for which the Ki at CDK7 is at most 50 nM; on PLK1 it was at least 5000 nM; at CDK2, at least 1000 nM. Further, in assay [1], the GI50 was at most 100 nM.

As for `[2H]C([2H])([2H])Oc1cccc(F)c1NC(=O)N1Cc2c(NC(=O)C3([Si](C)(C)C)CCC3)n[nH]c2C1(C)C` [IV-177, N-[2-Fluoro-6-(methoxy-d3)phenyl]-6,6-dimethyl-3-[1-(trimethylsilyl)cyclobutanecarboxamido]-4,6-dihydropyrrolo[3,4-c]pyrazole-5(1H)-carboxamide], the figures for the Ki on CDK7, at PLK1 and at CDK2 were at most 50 nM, at least 5000 nM and at least 1000 nM, respectively. Besides, the GI50 in assay [1] is at most 100 nM.

Take `CC1(C)c2[nH]nc(NC(=O)C(C)(C)[Si](C)(C)C)c2CN1C(=O)Nc1c(F)cccc1OC(F)F` [II-169, N-[2-(Difluoromethoxy)-6-fluorophenyl]-6,6-dimethyl-3-[2-methyl-2-(trimethylsilyl)propanamido]-4,6-dihydropyrrolo[3,4-c]pyrazole-5(1H)-carboxamide]: the Ki on CDK7 is at most 50 nM; on PLK1, at least 5000 nM; at CDK2 it was at least 1000 nM. Further, the 50% growth inhibitory concentration (GI50) in assay [1] was at most 100 nM.

`Cc1cccc(C)c1NC(=O)N1Cc2c(NC(=O)C3([Si](C)(C)C)CCC3)n[nH]c2C1(C)C` [IV-381, N-(2,6-Dimethylphenyl)-6,6-dimethyl-3-[1-(trimethylsilyl)cyclobutanecarboxamido]-4,6-dihydropyrrolo[3,4-c]pyrazole-5(1H)-carboxamide]: the figures for the Ki on CDK7, on PLK1 and at CDK2 were at most 50 nM, at least 5000 nM and at least 1000 nM, respectively. The GI50 in assay [1] is at most 100 nM.

As to `CC1(C)c2[nH]nc(NC(=O)C3([Si](C)(C)C)CCC3)c2CN1C(=O)Nc1ccccc1C1CC1` [IV-39, N-(2-Cyclopropylphenyl)-6,6-dimethyl-3-[1-(trimethylsilyl)cyclobutanecarboxamido]-4,6-dihydropyrrolo[3,4-c]pyrazole-5(1H)-carboxamide], the results for the Ki on CDK7, on PLK1 and on CDK2 were at most 50 nM, at least 5000 nM and at least 1000 nM, respectively. Moreover, the GI50 in assay [1] was at most 100 nM.

On to `CC1(C)c2[nH]nc(NC(=O)C3([Si](C)(C)C)CCC3)c2CN1C(=O)Nc1c(F)cccc1F` [IV-105, N-(2,6-Difluorophenyl)-6,6-dimethyl-3-[1-(trimethylsilyl)cyclobutanecarboxamido]-4,6-dihydropyrrolo[3,4-c]pyrazole-5(1H)-carboxamide], for which the Ki at CDK7 was at most 50 nM; at PLK1 it was at least 5000 nM; at CDK2 it was at least 1000 nM. For the same molecule, the GI50 in assay [1] is at most 100 nM.

Take `CC1(C)c2[nH]nc(NC(=O)C(C)(C)[Si](C)(C)C)c2CN1C(=O)Nc1c(F)ccc2ccoc12` [II-1049, N-(6-Fluorobenzofuran-7-yl)-6,6-dimethyl-3-[2-methyl-2-(trimethylsilyl)propanamido]-4,6-dihydropyrrolo[3,4-c]pyrazole-5(1H)-carboxamide]: the figures for the Ki on CDK7, on PLK1 and at CDK2 were at most 50 nM, at least 5000 nM and at least 1000 nM, respectively. Also, the GI50 in assay [1] is at most 100 nM.

For the molecule `CC1(C)c2[nH]nc(NC(=O)C3([Si](C)(C)C)CCC3)c2CN1C(=O)Nc1c(Cl)cccc1Br` [IV-207, N-(2-Bromo-6-chlorophenyl)-6,6-dimethyl-3-[1-(trimethylsilyl)cyclobutanecarboxamido]-4,6-dihydropyrrolo[3,4-c]pyrazole-5 (1H)-carboxamide], the Ki on CDK7 was at most 50 nM; at PLK1 it was at least 5000 nM; at CDK2, at least 1000 nM. Moreover, the GI50 in assay [1] was at most 100 nM.

Take `CC1(C)c2[nH]nc(NC(=O)C3([Si](C)(C)C)CCC3)c2CN1C(=O)Nc1c(Cl)cc(F)cc1Cl` [IV-709, N-(2,6-Dichloro-4-fluorophenyl)-6,6-dimethyl-3-[1-(trimethylsilyl)cyclobutanecarboxamido]-4,6-dihydropyrrolo[3,4-c]pyrazole-5(1H)-carboxamide]: the results for the Ki on CDK7, on PLK1 and on CDK2 were at most 50 nM, at least 5000 nM and at least 1000 nM, respectively. For the same molecule, the GI50 in assay [1] is at most 100 nM.

With `Cc1ccc(Cl)c(NC(=O)N2Cc3c(NC(=O)C4([Si](C)(C)C)CCC4)n[nH]c3C2(C)C)c1F` [IV-629, N-(6-Chloro-2-fluoro-3-methylphenyl)-6,6-dimethyl-3-[1-(trimethylsilyl)cyclobutanecarboxamido]-4,6-dihydropyrrolo[3,4-c]pyrazole-5(1H)-carboxamide], the values for the Ki on CDK7, at PLK1 and on CDK2 were at most 50 nM, at least 5000 nM and at least 1000 nM, respectively. Further, the GI50 in assay [1] is at most 100 nM.

For the molecule `CC1(C)c2[nH]nc(NC(=O)C3([Si](C)(C)C)CCC3)c2CN1C(=O)Nc1cccs1` [IV-1043, 6,6-Dimethyl-N-(thiophen-2-yl)-3-[1-(trimethylsilyl)cyclobutanecarboxamido]-4,6-dihydropyrrolo[3,4-c]pyrazole-5(1H)-carboxamide], the Ki at CDK7 was at most 50 nM; at PLK1 it was at least 5000 nM; on CDK2, at least 1000 nM. Also, the GI50 in assay [1] was at most 100 nM.

The values above are taken from US10894798B2, “Substituted dihydropyrrolopyrazole derivative” (UBE INDUSTRIES, LTD., priority 2015, dated 2021).
